Reference: US9708316B2 (BRISTOL-MYERS SQUIBB COMPANY, priority 2014, dated 2017)

Assays:
[1] = biological target: T1, HIS-TGFβR1 T204D (Homo sapiens, UniProt P36897, T204D); test: HTRF probe-displacement assay, HIS-TGFβR1 T204D; assay type: binding; settings: read-out: TGFβR1 (μM) IC50
T1 sequence (P36897 34-503 T204D): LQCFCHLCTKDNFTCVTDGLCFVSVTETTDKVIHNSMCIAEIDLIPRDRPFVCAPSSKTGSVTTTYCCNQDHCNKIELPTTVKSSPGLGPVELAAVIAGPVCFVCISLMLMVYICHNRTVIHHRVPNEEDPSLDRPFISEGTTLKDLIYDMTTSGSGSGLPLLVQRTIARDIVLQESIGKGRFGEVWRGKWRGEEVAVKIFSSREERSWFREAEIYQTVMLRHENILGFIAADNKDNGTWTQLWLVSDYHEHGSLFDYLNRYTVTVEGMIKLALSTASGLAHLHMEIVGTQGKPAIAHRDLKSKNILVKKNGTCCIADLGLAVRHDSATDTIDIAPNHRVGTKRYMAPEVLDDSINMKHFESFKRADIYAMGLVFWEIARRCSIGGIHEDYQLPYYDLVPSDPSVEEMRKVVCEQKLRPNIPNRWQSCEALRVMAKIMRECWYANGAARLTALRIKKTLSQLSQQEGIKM

[2] = biological target: HIS-TGFβR2 WT (Homo sapiens, UniProt P37173); test: HTRF probe-displacement assay, HIS-TGFβR2 WT; assay type: binding
HIS-TGFβR2 WT, sequence (P37173 23-567): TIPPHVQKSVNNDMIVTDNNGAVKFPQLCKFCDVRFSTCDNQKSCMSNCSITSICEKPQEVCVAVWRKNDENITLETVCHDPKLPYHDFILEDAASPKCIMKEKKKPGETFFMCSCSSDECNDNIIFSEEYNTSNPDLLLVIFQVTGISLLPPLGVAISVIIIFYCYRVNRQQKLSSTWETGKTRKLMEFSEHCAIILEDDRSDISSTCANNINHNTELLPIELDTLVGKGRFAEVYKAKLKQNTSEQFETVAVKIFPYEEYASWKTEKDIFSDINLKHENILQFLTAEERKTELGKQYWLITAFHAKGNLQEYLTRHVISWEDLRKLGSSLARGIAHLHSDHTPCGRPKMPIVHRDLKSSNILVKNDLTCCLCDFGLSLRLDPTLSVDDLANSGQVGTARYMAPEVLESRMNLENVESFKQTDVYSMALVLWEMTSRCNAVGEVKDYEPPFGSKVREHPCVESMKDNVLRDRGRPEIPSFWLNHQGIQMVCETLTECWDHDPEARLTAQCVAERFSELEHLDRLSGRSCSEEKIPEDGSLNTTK

SMILES: CC(=O)Nc1cc(-c2[nH]c3cccnc3c2-c2ncccn2)ccn1 [Example 8, N-{4-[3-(Pyrimidin-2-yl)-1H-pyrrolo[3,2-b]pyridin-2-yl]pyridin-2-yl}acetamide]
- IC50 [1]: 0.009 µM
- IC50 [2]: 2.03 µM

SMILES: COc1ccc(-c2c(-c3ccnc(NC(=O)CN4CCS(=O)(=O)CC4)c3)[nH]c3cc(OC)cnc23)nc1 [Example 118, 2-(1,1-Dioxidothiomorpholino)-N-{4-[6-methoxy-3-(5-methoxypyridin-2-yl)-1H-pyrrolo[3,2-b]pyridin-2-yl]pyridin-2-yl}acetamide]
- IC50 [1]: 0.002 µM
- IC50 [2]: > 15 µM

SMILES: COc1cnc2c(-c3ccc(Cl)cn3)c(-c3ccnc(NC(C)=O)c3)[nH]c2c1 [Example 50, N-{4-[3-(5-Chloropyridin-2-yl)-6-methoxy-1H-pyrrolo[3,2-b]pyridin-2-yl]pyridin-2-yl}acetamide]
- IC50 [1]: 0.003 µM
- IC50 [2]: 6.57 µM

SMILES: CC(=O)Nc1cc(-c2[nH]c3cccnc3c2-c2cccc(C#N)n2)ccn1 [Example 15, N-{4-[3-(6-Cyanopyridin-2-yl)-1H-pyrrolo[3,2-b]pyridin-2-yl]pyridin-2-yl}acetamide]
- IC50 [1]: 0.017 µM
- IC50 [2]: 13.1 µM

SMILES: CCOc1ccc(-c2c(-c3ccnc(NC(C)=O)c3)[nH]c3cc(Cl)cnc23)nc1 [Example 253, N-(4-(6-Chloro-3-(5-ethoxypyridin-2-yl)-1H-pyrrolo[3,2-b]pyridin-2-yl)pyridin-2-yl)acetamide]
- IC50 [1]: 0.004 µM
- IC50 [2]: > 15 µM

SMILES: CC(=O)Nc1cc(-c2[nH]c3c(C(C)(C)O)ccnc3c2-c2cccc(C(F)F)n2)ccn1 [Example 154, N-(4-{3-[6-(Difluoromethyl)pyridin-2-yl]-7-(2-hydroxypropan-2-yl)-1H-pyrrolo[3,2-b]pyridin-2-yl}pyridin-2-yl)acetamide]
- IC50 [1]: 0.001 µM
- IC50 [2]: 1.77 µM

SMILES: O=C(CN1CCOCC1)Nc1cc(-c2[nH]c3cc(Cl)cnc3c2-c2ccc(F)cn2)ccn1 [Example 74, N-{4-[6-Chloro-3-(5-fluoropyridin-2-yl)-1H-pyrrolo[3,2-b]pyridin-2-yl]pyridin-2-yl}-2-(morpholin-4-yl)acetamide]
- IC50 [1]: 0.001 µM
- IC50 [2]: 2.6 µM

SMILES: CCN1CCN(CC(=O)Nc2cc(-c3[nH]c4cc(Cl)cnc4c3-c3ccc(OC)cn3)ccn2)CC1 [Example 251, N-(4-(6-Chloro-3-(5-methoxypyridin-2-yl)-1H-pyrrolo[3,2-b]pyridin-2-yl)pyridin-2-yl)-2-(4-ethylpiperazin-1-yl)acetamide]
- IC50 [1]: 0.005 µM
- IC50 [2]: > 15 µM

SMILES: CC(=O)Nc1cc(-c2[nH]c3c(CO)ccnc3c2-c2cccc(C)n2)ccn1 [Example 279, N-(4-(7-(Hydroxymethyl)-3-(6-methylpyridin-2-yl)-1H-pyrrolo[3,2-b]pyridin-2-yl)pyridin-2-yl)acetamide]
- IC50 [1]: 0.006 µM
- IC50 [2]: 9.9 µM

SMILES: CC(=O)Nc1cc(-c2[nH]c3c(C)ccnc3c2-c2nc(C(F)(F)F)cs2)ccn1 [Example 212, N-(4-(7-Methyl-3-(4-(trifluoromethyl)thiazol-2-yl)-1H-pyrrolo[3,2-b]pyridin-2-yl)pyridin-2-yl)acetamide]
- IC50 [1]: 0.0005 µM
- IC50 [2]: 8.82 µM

SMILES: COc1ccc(-c2c(-c3ccnc(NC(C)=O)c3)[nH]c3c(C(O)C(C)C)ccnc23)cn1 (stereo not drawn) [Example 300, N-(4-(7-(1-Hydroxy-2-methylpropyl)-3-(6-methoxypyridin-3-yl)-1H-pyrrolo[3,2-b]pyridin-2-yl)pyridin-2-yl)acetamide]
- IC50 [1]: 0.003 µM
- IC50 [2]: 0.017 µM

SMILES: CC(=O)Nc1cc(-c2[nH]c3cccnc3c2-c2cc(C)ccn2)ccn1 [Example 31, N-{4-[3-(4-Methylpyridin-2-yl)-1H-pyrrolo[3,2-b]pyridin-2-yl]pyridin-2-yl}acetamide]
- IC50 [1]: 0.019 µM
- IC50 [2]: 0.66 µM

SMILES: CC(=O)N1CCN(CC(=O)Nc2cc(-c3[nH]c4cc(Cl)cnc4c3-c3ccc(F)cn3)ccn2)CC1 [Example 248, 2-(4-Acetylpiperazin-1-yl)-N-(4-(6-chloro-3-(5-fluoropyridin-2-yl)-1H-pyrrolo[3,2-b]pyridin-2-yl)pyridin-2-yl)acetamide]
- IC50 [1]: 0.002 µM
- IC50 [2]: 14.5 µM

SMILES: CC(=O)Nc1cc(-c2[nH]c3c(C(O)C(C)C)ccnc3c2-c2cccc(C(F)F)n2)ccn1 (stereo not drawn) [Example 144, N-(4-{3-[6-(Difluoromethyl)pyridin-2-yl]-7-(1-hydroxy-2-methylpropyl)-1H-pyrrolo[3,2-b]pyridin-2-yl}pyridin-2-yl)acetamide]
- IC50 [1]: 0.001 µM
- IC50 [2]: 0.361 µM

SMILES: COc1ccc(-c2c(-c3ccnc(NC(C)=O)c3)[nH]c3cc(OC4COC4)cnc23)nc1 [Example 98, N-(4-(3-(5-Methoxypyridin-2-yl)-6-(oxetan-3-yloxy)-1H-pyrrolo[3,2-b]pyridin-2-yl)pyridin-2-yl)acetamide]
- IC50 [1]: 0.002 µM
- IC50 [2]: > 15 µM

SMILES: COc1cnc2c(-c3nc(C(F)F)cs3)c(-c3ccnc(NC(C)=O)c3)[nH]c2c1 [Example 227, N-(4-(3-(4-(Difluoromethyl)thiazol-2-yl)-6-methoxy-1H-pyrrolo[3,2-b]pyridin-2-yl)pyridin-2-yl)acetamide]
- IC50 [1]: 0.0006 µM
- IC50 [2]: 0.725 µM

SMILES: CC(=O)Nc1cc(-c2[nH]c3cc(Br)cnc3c2-c2cccc(C(F)F)n2)ccn1 [Example 272, N-(4-(6-Bromo-3-(6-(difluoromethyl)pyridin-2-yl)-1H-pyrrolo[3,2-b]pyridin-2-yl)pyridin-2-yl)acetamide]
- IC50 [1]: 0.001 µM
- IC50 [2]: 1.85 µM

SMILES: COc1ccc(-c2c(-c3ccnc(NC(=O)CN4CCN(C)CC4)c3)[nH]c3cc(Cl)cnc23)cn1 [Example 292, N-(4-(6-chloro-3-(6-methoxypyridin-3-yl)-1H-pyrrolo[3,2-b]pyridin-2-yl)pyridin-2-yl)-2-(4-methylpiperazin-1-yl)acetamide]
- IC50 [1]: 0.001 µM
- IC50 [2]: 1.51 µM

SMILES: COc1ccc(-c2c(-c3ccnc(NC(C)=O)c3)[nH]c3c(C)ccnc23)nc1 [Example 217, N-(4-(3-(5-Methoxypyridin-2-yl)-7-methyl-1H-pyrrolo[3,2-b]pyridin-2-yl)pyridin-2-yl)acetamide]
- IC50 [1]: > 15 µM
- IC50 [2]: > 15 µM

SMILES: CC(=O)Nc1cc(-c2[nH]c3nccnc3c2-c2cccc(Cl)n2)ccn1 [Example 55, N-{4-[7-(6-Chloropyridin-2-yl)-5H-pyrrolo[2,3-b]pyrazin-6-yl]pyridin-2-yl}acetamide]
- IC50 [1]: 0.003 µM
- IC50 [2]: 0.069 µM

SMILES: COc1ccc(-c2c(-c3ccnc(N)c3)[nH]c3cc(Cl)cnc23)cn1 [Example 289, 4-(6-Chloro-3-(6-methoxypyridin-3-yl)-1H-pyrrolo[3,2-b]pyridin-2-yl)pyridin-2-amine]
- IC50 [1]: 0.002 µM
- IC50 [2]: 0.794 µM

SMILES: COc1ccc(-c2c(-c3ccnc(NC(C)=O)c3)[nH]c3c(OC)ccnc23)cn1 [Example 269, N-(4-(7-Methoxy-3-(6-methoxypyridin-3-yl)-1H-pyrrolo[3,2-b]pyridin-2-yl)pyridin-2-yl)acetamide]
- IC50 [1]: 0.067 µM
- IC50 [2]: 1.04 µM

SMILES: COc1cnc2c(-c3ccc(F)cn3)c(-c3ccnc(NC(C)=O)c3)[nH]c2c1 [Example 49, N-{4-[3-(5-Fluoropyridin-2-yl)-6-methoxy-1H-pyrrolo[3,2-b]pyridin-2-yl]pyridin-2-yl}acetamide]
- IC50 [1]: 0.003 µM
- IC50 [2]: 0.24 µM

SMILES: COc1cnc2c(-c3cccc(C(F)F)n3)c(-c3ccnc(NC(=O)CN4CCN(CCO)CC4)c3)[nH]c2c1 [Example 123, N-(4-{3-[6-(Difluoromethyl)pyridin-2-yl]-6-methoxy-1H-pyrrolo[3,2-b]pyridin-2-yl}pyridin-2-yl)-2-[4-(2-hydroxyethyl)piperazin-1-yl]acetamide]
- IC50 [1]: < 0.001 µM
- IC50 [2]: > 15 µM

SMILES: CC(=O)Nc1cc(-c2[nH]c3cc(F)cnc3c2-c2cccc(Cl)n2)ccn1 [Example 38, N-{4-[3-(6-Chloropyridin-2-yl)-6-fluoro-1H-pyrrolo[3,2-b]pyridin-2-yl]pyridin-2-yl}acetamide]
- IC50 [1]: 0.002 µM
- IC50 [2]: 0.11 µM

SMILES: COc1ccc(-c2c(-c3ccnc(NC(C)=O)c3)[nH]c3cc(-c4c(C)nnn4C)cnc23)nc1 [Example 94, N-{4-[6-(Dimethyl-1H-1,2,3-triazol-5-yl)-3-(5-methoxypyridin-2-yl)-1H-pyrrolo[3,2-b]pyridin-2-yl]pyridin-2-yl}acetamide]
- IC50 [1]: 0.004 µM
- IC50 [2]: > 15 µM

SMILES: COc1ccc(-c2c(-c3ccnc(NC(=O)CN4CCN(C)CC4)c3)[nH]c3cccnc23)cn1 [Example 287, N-(4-(3-(6-Methoxypyridin-3-yl)-1H-pyrrolo[3,2-b]pyridin-2-yl)pyridin-2-yl)-2-(4-methylpiperazin-1-yl)acetamide]
- IC50 [1]: 0.001 µM
- IC50 [2]: 0.668 µM

SMILES: COc1ccc(-c2c(-c3ccnc(NC(C)=O)c3)[nH]c3c(Cl)ccnc23)nc1 [Example 62, N-{4-[7-Chloro-3-(5-methoxypyridin-2-yl)-1H-pyrrolo[3,2-b]pyridin-2-yl]pyridin-2-yl}acetamide]
- IC50 [1]: 0.009 µM
- IC50 [2]: > 15 µM

SMILES: CC(=O)Nc1cc(-c2[nH]c3c(CO)ccnc3c2-c2cccc(C(F)F)n2)ccn1 [Example 142, N-(4-{3-[6-(Difluoromethyl)pyridin-2-yl]-7-(hydroxymethyl)-1H-pyrrolo[3,2-b]pyridin-2-yl}pyridin-2-yl)acetamide]
- IC50 [1]: 0.001 µM
- IC50 [2]: 7.81 µM

SMILES: CC(=O)Nc1cc(-c2[nH]c3cccnc3c2-c2nc(CO)cs2)ccn1 [Example 204, N-(4-(3-(4-(Hydroxymethyl)thiazol-2-yl)-1H-pyrrolo[3,2-b]pyridin-2-yl)pyridin-2-yl)acetamide]
- IC50 [1]: 0.0055 µM
- IC50 [2]: 0.111 µM
